Measured values as given in ChEMBL document CHEMBL6103674, “Xiapyrroles A-F: N-Alkylpyrrole Alkaloids from the Marine-Derived Actinomycete Streptomyces xiamenensis 1310KO-148” (J Nat Prod, 2025).
Active and inactive are the calls of the source. The calls are words filed in the database; no cut-off is given here.

Assays:
[1] = system: RAW264.7; assay: Cytotoxicity against LPS-induced mouse RAW264.7 cells assessed as reduction in cell viability at 30 uM measured after 24 hrs by XTT assay; type: toxicity, cell-based; conditions: raw264.7, 24 h
[2] = system: RAW264.7; assay: Anti-inflammatory activity against mouse RAW264.7 cells assessed as inhibition of LPS-induced IL-6 mRNA level pretreated for 1 hr followed by induced with LPS measured after 6 hrs by quantitative RT-PCR analysis; type: functional, cell-based; conditions: dose 1-30 µM, time 7.0 hrs
[3] = system: RPMI-1788; assay: Cytotoxicity against human RPMI-1788 cells at 30 uM; type: functional, cell-based
[4] = system: WSUDLCL2; assay: Cytotoxicity against human WSUDLCL2 cells at 30 uM; type: functional, cell-based
[5] = system: NCI-H23; assay: Cytotoxicity against human NCI-H23 cells at 30 uM; type: functional, cell-based
[6] = system: RPMI 8402; assay: Cytotoxicity against human RPMI 8402 cells at 30 uM; type: functional, cell-based
[7] = system: U-266; assay: Cytotoxicity against human U-266 cells at 30 uM; type: functional, cell-based
[8] = system: MDA-MB-231; assay: Cytotoxicity against human MDA-MB-231 cells at 30 uM; type: functional, cell-based
[9] = system: ACHN; assay: Cytotoxicity against human ACHN cells at 30 uM; type: functional, cell-based
[10] = system: Raji; assay: Cytotoxicity against human Raji cells at 30 uM; type: functional, cell-based
[11] = system: NALM-6; assay: Cytotoxicity against human NALM-6 cells at 30 uM; type: functional, cell-based
[12] = system: HL-60; assay: Cytotoxicity against human HL-60 cells at 30 uM; type: functional, cell-based
[13] = system: RAW264.7; assay: Anti-inflammatory activity in LPS-induced mouse RAW264.7 cells assessed as suppression of NO production pretreated for 1 hr followed by LPS addition and measured after 24 hrs by Griess reagent based assay; type: functional, cell-based
[14] = system: HCT-15; assay: Cytotoxicity against human HCT-15 cells at 30 uM; type: functional, cell-based
[15] = system: RAW264.7; assay: Anti-inflammatory activity in LPS-induced mouse RAW264.7 cells assessed as suppression of IL-6 level pretreated for 1 hr followed by LPS addition and measured after 24 hrs by ELISA method; type: functional, cell-based
[16] = system: RAW264.7; assay: Anti-inflammatory activity in LPS-induced mouse RAW264.7 cells assessed as suppression of NO production at 30 uM pretreated for 1 hr followed by LPS addition and measured after 24 hrs by Griess reagent based assay; type: functional, cell-based; conditions: time 25.0 hrs
[17] = system: PC-3; assay: Cytotoxicity against human PC-3 cells at 30 uM; type: functional, cell-based
[18] = system: RAW264.7; assay: Anti-inflammatory activity against mouse RAW264.7 cells assessed as inhibition of LPS-induced iNOS mRNA level pretreated for 1 hr followed by induced with LPS measured after 6 hrs by quantitative RT-PCR analysis; type: functional, cell-based; conditions: dose 1-30 µM, time 7.0 hrs
[19] = system: K562; assay: Cytotoxicity against human K562 cells at 30 uM; type: functional, cell-based
[20] = system: NUGC-3; assay: Cytotoxicity against human NUGC-3 cells at 30 uM; type: functional, cell-based

## CO[C@@]1(C)C=C(C)C(=O)N1CC(=O)c1ccccc1
[1]
  Activity: Non-toxic

## CO[C@@]1(C)C=C(C)C(=O)N1CCc1ccc(O)cc1
[1]
  Activity: Non-toxic

## C=C1C=C(C)C(=O)N1CCc1ccc(O)cc1
[2]
  inhibition: Dose-dependent-effect
[3]
  Activity: inactive
[4]
  Activity: inactive
[1]
  Activity: Non-toxic
[5]
  Activity: inactive
[6]
  Activity: inactive
[7]
  Activity: inactive
[8]
  Activity: inactive
[9]
  Activity: inactive
[10]
  Activity: inactive
[11]
  Activity: inactive
[12]
  Activity: inactive
[13]
  IC50: 29.5 µM
[13]; time 25.0 hrs
  Activity: Dose-dependent-effect
[14]
  Activity: inactive
[15]
  IC50: 10.9 µM
[15]; time 25.0 hrs
  Activity: Dose-dependent-effect
[16]
  Activity: Active
[17]
  Activity: inactive
[18]
  inhibition: Dose-dependent-effect
[19]
  Activity: inactive
[20]
  Activity: inactive

## CC(=O)N(O)CCCn1c(C)cc(C)c1C(=O)[C@@H](O)CO
[1]
  Activity: Non-toxic

## Cc1cc(C)n(CCc2ccc(O)cc2)c1C=O
[1]
  Activity: Non-toxic

## CC1=C[C@@](C)(O)N(CCc2ccc(O)cc2)C1=O
[1]
  Activity: Non-toxic
